Source: ChEMBL document CHEMBL3108715, “Pan-histone demethylase inhibitors simultaneously targeting Jumonji C and lysine-specific demethylases display high anticancer activities” (J Med Chem, 2014)

Columns and labels:
[1] = target: Lysine-specific demethylase 6B (Homo sapiens, UniProt O15054)
Description: Inhibition of recombinant JMJD3 (unknown origin) incubated for 15 mins prior to substrate addition by AlphaScreen method

[2] = target: T1, Lysine-specific demethylase 4E (Homo sapiens, UniProt B2RXH2)
T1 sequence (B2RXH2 whole entry): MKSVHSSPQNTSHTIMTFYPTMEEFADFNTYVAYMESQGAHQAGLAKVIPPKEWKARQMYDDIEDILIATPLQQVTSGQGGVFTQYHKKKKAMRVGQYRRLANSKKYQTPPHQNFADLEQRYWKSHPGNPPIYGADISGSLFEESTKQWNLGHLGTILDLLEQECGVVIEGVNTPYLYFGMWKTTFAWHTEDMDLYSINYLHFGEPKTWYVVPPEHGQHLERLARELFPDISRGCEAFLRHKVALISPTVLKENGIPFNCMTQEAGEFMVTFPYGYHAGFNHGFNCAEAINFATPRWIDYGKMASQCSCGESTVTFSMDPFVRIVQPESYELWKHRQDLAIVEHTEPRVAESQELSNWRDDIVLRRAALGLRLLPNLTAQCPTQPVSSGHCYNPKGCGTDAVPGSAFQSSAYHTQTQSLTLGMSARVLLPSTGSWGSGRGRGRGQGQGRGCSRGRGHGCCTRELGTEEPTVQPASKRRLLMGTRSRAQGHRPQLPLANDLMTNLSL
Description: Inhibition of recombinant JMJD2E (unknown origin) incubated for 15 mins prior to substrate addition by AlphaScreen method

[3] = target: Lysine-specific histone demethylase 1A (Homo sapiens, UniProt O60341)
Description: Inhibition of human recombinant His-tagged LSD1 (171 to 836) assessed as hydrogen peroxide formation after 5 mins

[4] = target: T2, Lysine-specific demethylase 3A (Homo sapiens, UniProt Q9Y4C1)
T2 sequence (Q9Y4C1 whole entry): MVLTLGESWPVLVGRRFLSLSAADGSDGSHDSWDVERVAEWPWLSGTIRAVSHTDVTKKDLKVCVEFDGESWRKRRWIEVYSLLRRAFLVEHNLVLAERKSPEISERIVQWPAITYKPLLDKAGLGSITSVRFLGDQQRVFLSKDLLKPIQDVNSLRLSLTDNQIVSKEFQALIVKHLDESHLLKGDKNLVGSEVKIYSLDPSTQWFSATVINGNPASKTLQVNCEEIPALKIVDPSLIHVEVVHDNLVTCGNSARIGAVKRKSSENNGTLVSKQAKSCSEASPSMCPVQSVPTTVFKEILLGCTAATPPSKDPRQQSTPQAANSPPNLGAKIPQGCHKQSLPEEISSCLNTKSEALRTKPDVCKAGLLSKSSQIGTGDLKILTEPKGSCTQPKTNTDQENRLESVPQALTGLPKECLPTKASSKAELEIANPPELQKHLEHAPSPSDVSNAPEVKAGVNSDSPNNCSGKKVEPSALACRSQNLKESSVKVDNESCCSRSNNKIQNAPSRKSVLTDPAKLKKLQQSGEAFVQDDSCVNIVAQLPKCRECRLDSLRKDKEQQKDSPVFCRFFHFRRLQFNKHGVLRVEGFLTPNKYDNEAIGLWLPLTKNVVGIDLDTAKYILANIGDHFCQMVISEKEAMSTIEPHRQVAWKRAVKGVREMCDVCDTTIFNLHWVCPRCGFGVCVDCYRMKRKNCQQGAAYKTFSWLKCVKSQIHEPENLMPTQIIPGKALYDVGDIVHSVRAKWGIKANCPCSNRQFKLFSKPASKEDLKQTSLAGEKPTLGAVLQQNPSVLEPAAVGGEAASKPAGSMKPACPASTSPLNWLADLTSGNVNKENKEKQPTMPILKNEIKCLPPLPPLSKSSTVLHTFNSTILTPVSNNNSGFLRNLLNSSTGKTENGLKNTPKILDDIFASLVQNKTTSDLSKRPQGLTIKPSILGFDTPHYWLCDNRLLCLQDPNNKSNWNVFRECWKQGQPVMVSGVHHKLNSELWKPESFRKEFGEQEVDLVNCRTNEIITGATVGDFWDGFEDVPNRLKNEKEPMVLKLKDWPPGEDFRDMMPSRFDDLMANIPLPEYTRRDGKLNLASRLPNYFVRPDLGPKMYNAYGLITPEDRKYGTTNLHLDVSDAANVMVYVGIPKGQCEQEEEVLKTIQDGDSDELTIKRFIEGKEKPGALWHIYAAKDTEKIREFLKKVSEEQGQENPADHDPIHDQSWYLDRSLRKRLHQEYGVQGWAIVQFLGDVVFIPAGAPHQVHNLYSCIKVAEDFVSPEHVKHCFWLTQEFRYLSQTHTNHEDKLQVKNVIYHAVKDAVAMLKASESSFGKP
Description: Inhibition of recombinant JMJD1A (unknown origin) incubated for 15 mins prior to substrate addition by AlphaScreen method

[5] = target: Lysine-specific demethylase 5C (Homo sapiens, UniProt P41229)
Description: Inhibition of recombinant JARID1C (unknown origin) incubated for 15 mins prior to substrate addition by AlphaScreen method

[6] = target: T3, Lysine-specific demethylase 4C (Homo sapiens, UniProt Q9H3R0)
T3 sequence (Q9H3R0 whole entry): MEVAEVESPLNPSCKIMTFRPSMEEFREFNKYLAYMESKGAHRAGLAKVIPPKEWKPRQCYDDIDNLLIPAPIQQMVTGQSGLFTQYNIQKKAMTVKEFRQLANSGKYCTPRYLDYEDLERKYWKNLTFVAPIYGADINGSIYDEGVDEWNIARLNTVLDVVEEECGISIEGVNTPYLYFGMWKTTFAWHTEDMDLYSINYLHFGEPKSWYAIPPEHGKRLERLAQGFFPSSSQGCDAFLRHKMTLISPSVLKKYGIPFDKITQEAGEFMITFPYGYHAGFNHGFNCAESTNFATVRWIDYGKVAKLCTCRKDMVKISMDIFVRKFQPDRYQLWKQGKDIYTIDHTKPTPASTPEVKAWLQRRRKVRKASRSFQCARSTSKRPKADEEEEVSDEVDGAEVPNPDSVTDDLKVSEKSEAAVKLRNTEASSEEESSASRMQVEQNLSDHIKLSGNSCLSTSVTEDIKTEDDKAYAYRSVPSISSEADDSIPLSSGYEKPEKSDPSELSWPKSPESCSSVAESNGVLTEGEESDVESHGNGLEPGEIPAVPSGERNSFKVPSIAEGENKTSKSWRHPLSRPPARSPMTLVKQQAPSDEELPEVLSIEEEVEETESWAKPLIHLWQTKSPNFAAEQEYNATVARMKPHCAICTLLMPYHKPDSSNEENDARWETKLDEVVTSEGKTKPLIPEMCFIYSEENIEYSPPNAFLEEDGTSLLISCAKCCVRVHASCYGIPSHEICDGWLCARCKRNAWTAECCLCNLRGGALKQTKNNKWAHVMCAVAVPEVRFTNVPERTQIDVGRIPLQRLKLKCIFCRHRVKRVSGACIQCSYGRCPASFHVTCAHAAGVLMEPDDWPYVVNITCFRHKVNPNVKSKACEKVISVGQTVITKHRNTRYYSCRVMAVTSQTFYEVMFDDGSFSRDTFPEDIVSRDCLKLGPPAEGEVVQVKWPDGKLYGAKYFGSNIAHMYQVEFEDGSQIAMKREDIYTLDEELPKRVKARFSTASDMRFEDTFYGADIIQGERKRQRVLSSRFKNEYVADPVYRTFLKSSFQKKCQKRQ
Description: Inhibition of recombinant JMJD2C (unknown origin) incubated for 15 mins prior to substrate addition by AlphaScreen method

Chain of Lysine-specific demethylase 6B (O15054 whole entry): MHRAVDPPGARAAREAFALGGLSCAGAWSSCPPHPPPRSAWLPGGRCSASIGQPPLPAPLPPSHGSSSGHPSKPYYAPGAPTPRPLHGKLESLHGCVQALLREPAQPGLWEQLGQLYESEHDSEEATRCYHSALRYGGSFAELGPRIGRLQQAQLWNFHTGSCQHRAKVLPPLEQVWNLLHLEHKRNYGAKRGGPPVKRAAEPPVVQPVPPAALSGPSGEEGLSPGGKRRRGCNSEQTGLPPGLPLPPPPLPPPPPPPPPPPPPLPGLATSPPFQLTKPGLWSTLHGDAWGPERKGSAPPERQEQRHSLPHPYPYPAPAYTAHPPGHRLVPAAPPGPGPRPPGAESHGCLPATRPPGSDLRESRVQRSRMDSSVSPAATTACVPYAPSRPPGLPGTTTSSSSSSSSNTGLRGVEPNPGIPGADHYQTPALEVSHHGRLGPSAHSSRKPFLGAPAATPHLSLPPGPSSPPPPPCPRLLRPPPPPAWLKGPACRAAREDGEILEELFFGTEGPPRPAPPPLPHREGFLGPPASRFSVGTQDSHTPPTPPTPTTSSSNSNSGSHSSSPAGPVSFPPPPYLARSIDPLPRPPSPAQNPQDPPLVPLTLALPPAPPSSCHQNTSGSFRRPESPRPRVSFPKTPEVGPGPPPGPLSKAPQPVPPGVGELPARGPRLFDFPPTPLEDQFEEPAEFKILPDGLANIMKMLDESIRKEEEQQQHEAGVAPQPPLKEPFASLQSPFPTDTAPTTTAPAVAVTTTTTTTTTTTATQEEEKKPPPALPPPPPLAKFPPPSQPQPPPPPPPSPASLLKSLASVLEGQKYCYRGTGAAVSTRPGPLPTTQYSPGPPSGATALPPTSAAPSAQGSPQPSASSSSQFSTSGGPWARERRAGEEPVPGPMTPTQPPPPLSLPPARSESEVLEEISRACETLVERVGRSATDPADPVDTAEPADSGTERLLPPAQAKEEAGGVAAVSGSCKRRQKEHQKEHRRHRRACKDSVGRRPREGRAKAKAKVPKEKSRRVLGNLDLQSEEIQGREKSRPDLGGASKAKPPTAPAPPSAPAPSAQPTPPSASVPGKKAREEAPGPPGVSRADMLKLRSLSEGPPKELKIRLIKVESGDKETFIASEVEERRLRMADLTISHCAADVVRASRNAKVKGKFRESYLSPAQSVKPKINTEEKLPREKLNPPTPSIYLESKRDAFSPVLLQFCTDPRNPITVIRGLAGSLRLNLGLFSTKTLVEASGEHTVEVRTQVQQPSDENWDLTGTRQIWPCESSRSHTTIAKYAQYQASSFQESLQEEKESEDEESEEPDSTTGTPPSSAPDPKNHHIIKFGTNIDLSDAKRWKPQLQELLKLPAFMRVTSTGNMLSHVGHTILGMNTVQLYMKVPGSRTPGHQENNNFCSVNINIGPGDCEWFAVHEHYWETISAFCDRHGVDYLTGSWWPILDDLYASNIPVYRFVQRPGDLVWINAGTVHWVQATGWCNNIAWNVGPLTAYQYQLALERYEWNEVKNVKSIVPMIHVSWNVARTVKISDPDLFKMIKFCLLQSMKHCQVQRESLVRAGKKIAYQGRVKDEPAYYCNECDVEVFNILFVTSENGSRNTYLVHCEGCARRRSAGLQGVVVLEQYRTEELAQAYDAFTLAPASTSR
Chain of Lysine-specific demethylase 5C (P41229 whole entry): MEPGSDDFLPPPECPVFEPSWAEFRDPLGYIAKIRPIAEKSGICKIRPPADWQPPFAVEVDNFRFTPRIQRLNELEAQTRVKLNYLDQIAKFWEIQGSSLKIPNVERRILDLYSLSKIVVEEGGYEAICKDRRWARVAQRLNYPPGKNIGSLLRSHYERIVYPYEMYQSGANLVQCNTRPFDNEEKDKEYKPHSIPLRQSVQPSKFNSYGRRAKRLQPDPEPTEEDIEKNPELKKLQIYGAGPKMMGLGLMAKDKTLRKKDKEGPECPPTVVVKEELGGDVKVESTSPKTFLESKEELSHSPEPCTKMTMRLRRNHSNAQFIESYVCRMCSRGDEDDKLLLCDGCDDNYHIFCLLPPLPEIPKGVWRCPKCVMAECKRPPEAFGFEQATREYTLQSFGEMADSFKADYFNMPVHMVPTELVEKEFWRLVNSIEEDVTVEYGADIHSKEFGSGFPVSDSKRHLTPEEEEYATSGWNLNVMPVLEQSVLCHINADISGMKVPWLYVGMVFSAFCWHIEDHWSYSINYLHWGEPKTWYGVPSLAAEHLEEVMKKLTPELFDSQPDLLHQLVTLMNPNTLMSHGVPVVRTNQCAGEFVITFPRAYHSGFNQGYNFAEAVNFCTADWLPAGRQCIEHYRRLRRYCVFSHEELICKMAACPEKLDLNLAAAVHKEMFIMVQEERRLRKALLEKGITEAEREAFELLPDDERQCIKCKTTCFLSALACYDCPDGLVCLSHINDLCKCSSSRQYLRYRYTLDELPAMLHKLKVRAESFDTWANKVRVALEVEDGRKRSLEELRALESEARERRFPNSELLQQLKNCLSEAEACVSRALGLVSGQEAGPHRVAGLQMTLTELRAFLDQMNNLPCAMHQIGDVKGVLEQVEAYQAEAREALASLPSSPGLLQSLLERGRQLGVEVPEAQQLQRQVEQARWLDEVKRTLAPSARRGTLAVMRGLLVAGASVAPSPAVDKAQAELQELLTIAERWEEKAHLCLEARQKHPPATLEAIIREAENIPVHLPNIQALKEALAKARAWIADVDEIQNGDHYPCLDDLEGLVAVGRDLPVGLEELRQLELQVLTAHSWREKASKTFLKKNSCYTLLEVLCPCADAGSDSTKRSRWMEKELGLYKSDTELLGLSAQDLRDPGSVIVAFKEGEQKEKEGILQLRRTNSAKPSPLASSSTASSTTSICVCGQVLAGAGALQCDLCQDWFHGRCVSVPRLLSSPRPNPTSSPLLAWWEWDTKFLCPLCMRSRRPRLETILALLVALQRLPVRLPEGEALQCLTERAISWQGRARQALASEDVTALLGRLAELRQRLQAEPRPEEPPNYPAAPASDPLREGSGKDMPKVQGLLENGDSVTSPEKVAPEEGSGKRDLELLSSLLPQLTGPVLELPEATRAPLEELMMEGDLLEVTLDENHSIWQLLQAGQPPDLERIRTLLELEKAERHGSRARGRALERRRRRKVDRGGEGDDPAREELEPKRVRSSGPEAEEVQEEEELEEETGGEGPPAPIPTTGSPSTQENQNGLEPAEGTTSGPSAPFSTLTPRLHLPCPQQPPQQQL

| Compound | IC50 [1] [µM] | IC50 [2] [µM] | IC50 [3] [µM] | IC50 [4] [µM] | IC50 [5] [µM] | IC50 [6] [µM] |
| --- | --- | --- | --- | --- | --- | --- |
| Cl.N[C@@H]1C[C@H]1c1ccc(NC(=O)c2ccc(O)c3ncccc23)cc1 (relative stereo) | 27 | 3.9 | < 1 | 31 | 26 | 1.2 |
| N[C@H]1C[C@@H]1c1ccc(NC(=O)CCCNC(=O)c2ccc(O)c3ncccc23)cc1 (relative stereo) | 18 | 5.5 | < 1 | 12 | 35 | 4.5 |
| N[C@H]1C[C@@H]1c1ccc(NC(=O)CCCCNC(=O)c2ccc(O)c3ncccc23)cc1 (relative stereo) | 14 | 3.5 | 1.6 | 9.7 | 21 | 3.1 |
| Cl.N[C@H]1C[C@@H]1c1ccc(NC(=O)CCCCCNC(=O)c2ccc(O)c3ncccc23)cc1 (relative stereo) | 16 | 5.1 | 1 | 9.1 | 37 | 2.5 |

Continued, values first:

| IC50 [1] [µM] | IC50 [2] [µM] | IC50 [3] [µM] | IC50 [4] [µM] | IC50 [5] [µM] | IC50 [6] [µM] | Compound |
| --- | --- | --- | --- | --- | --- | --- |
| 11.2 | 5 | > 100 | 1.1 | 0.03 | 3.5 | COC(=O)c1ccnc(-c2cc(C(=O)O)ccn2)c1 |
| 2.7 | 0.42 | 2.2 | 0.14 | 0.19 | 0.07 | N[C@@H]1C[C@H]1c1ccc(NC(=O)c2ccnc(-c3cc(C(=O)O)ccn3)c2)cc1 (relative stereo) |
| 76 | 16 | < 1 | 37 | 8.5 | 2.7 | COC(=O)c1ccnc(-c2cc(C(=O)Nc3ccc([C@@H]4C[C@H]4N)cc3)ccn2)c1.Cl (relative stereo) |
